Data published in patent US4988684A, “Novel 4-alkylthio-steroids” (Roussel Uclaf, priority 1988, dated 1991).

Biological target: T1, aromatase (cytochrome P450 aromatase) (Homo sapiens, UniProt P11511)
T1 construct: Human placentas were used; from tissue; host or cells: human placenta, microsomes (105,000 g pellet)
T1 sequence (P11511 1-503): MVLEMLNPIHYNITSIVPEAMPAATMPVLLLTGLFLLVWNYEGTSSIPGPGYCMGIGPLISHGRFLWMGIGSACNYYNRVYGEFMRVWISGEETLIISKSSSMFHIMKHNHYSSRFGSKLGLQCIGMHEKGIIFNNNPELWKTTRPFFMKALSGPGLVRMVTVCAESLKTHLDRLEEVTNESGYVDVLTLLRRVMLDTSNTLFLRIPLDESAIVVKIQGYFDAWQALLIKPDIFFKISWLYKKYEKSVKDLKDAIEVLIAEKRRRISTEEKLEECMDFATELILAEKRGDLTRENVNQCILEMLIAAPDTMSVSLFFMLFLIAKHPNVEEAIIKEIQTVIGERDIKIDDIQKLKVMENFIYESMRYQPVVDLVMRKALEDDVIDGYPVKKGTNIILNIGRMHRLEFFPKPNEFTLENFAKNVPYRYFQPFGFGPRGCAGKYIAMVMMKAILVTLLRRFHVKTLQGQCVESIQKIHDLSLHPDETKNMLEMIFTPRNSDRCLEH
Experiment: Aromatase inhibition in human placental microsomes (tritiated water release from 1-2-(^3H)-androstenedione)
Format: biochemical
Conditions: 25 micrograms protein per test, 60 nM androstene-dione substrate, NADPH, pH 7.2, 37° C., 10 minutes, read-out: IC50 (concentration of inhibitor necessary to decrease by 50% the enzymatic activity)
Description: Inhibition dependent on the concentration (measurement of the IC50 =concentration of the inhibitor necessary to reduce the enzymatic activity by 50%). Human placentas were used which one hour or more after birth were washed, perfused with physiological serum (5 liters) via the umbilical vein and then frozen at -40° C.
The placentas were thawed at 4° C., then homogenized (1:3) in a 10 mM phosphate buffer, pH=7.0, containing 100 mM of potassium chloride (KCl), 10 mM of dithiothreitol (DTT), 10 mM of ethylenediaminetetra-aceticacid (EDTA), 40 mM of nicotinamide and 250 mM of sucrose. The homogenates were then subjected to various stages of centrifugation until the "9000 g" supernatant was obtained (corresponding to cytosol and to endoplasmic reticulum). This supernatant was then subjected to an ultracentrifugation stage (90 minutes, 105,000 g) to obtain the microsome deposit. […] The protein concentration of the microsome suspension was determined by the BRADFORD method (BRADFORD, Anal. Biochem., Vol. 72 (1976), p. 248). […]
The enzymatic reaction was then very quickly started by the addition of 10 microliters of reduced nicotinamide adenine dinucleotide phosphate (NADPH) dissolved in water. […] After centrifugation, and for each tube, 100 microliters of supernatant was removed and counted in the presence of scintillating liquid. […]

| Compound | IC50 |
| --- | --- |
| C[C@]12CCC(=O)C(SCF)=C1CC[C@@H]1[C@@H]2CC[C@]2(C)C(=O)CC[C@@H]12 [Example 1, 4-fluoromethylthio-Δ^4-androstene-3,17-dione] | 70 nM |
| C[C@]12CCC(=O)C(SCCl)=C1CC[C@@H]1[C@@H]2CC[C@]2(C)C(=O)CC[C@@H]12 [Example 2, 4-Chloromethylthio-Δ^4-androstene-3,17-dione] | 75 nM |
